Data from patent publication US10143201B2, “Fungicidal compositions” (Syngenta Crop Protection LLC, priority 2007, dated 2018).

Tests used:
Assay type in all cases: cell-based
Gaeumannomyces graminis = assay: Fungicidal action against Gaeumannomyces graminis (take-all of cereals), microtiter growth inhibition; settings: Gaeumannomyces graminis, compound alone
Protocol: Example B7: Fungicidal Action Against Gaeumannomyces graminis (Take-all of Cereals)
(§1) Mycelial fragments of the fungus from cryogenic storage are directly mixed into nutrient broth (PDB potato dextrose broth). After placing a (DMSO) solution of the test compounds into a microtiter plate (96-well format) the nutrient broth containing the fungal spores is added. The test plates are incubated at 24 C and the inhibition of growth is evaluated after 4 days.

[1] = tested on: Cercospora arachidicola (syn. Mycosphaerella arachidis); assay: Fungicidal action against Cercospora arachidicola (brown leaf spot of groundnut), microtiter growth inhibition; settings: Mycosphaerella arachidis, compound alone; for inhibition at 0.125 ppm: 0.1250 ppm
Protocol: Example B8: Fungicidal Action Against Cercospora arachidicola (Syn. Mycosphaerella arachidis), Brown Leaf Spot of Groundnut (Peanut)
as §1, with “Conidia of” for “Mycelial fragments of”, “after 7” for “after 4”

Pyrenophora teres = assay: Fungicidal action against Pyrenophora teres (net blotch), microtiter growth inhibition; settings: for inhibition at 0.125 ppm / inhibition at 0.5 ppm / inhibition at 1 ppm / inhibition at 0.0625 ppm: read-out: % activity; for inhibition at 0.5 ppm: 0.5000 ppm; for inhibition at 0.25 ppm: 0.2500 ppm; for % activity: alone
Protocol: Example B6: Fungicidal Action Against Pyrenophora teres (Net Blotch)
as §1, with “Conidia” for “Mycelial fragments”, “24° C.” for “24 C”, “days. The expected fungicidal action is calculated according to the Colby method.” for “days.”

[2] = tested on: Pseudocercosporella herpotrichoides (syn. Tapesia yallundae); assay: Fungicidal action against Pseudocercosporella herpotrichoides (eye spot of cereals), microtiter growth inhibition; settings: Oculimacula yallundae, alone; for inhibition at 0.0156 ppm / inhibition at 0.25 ppm: read-out: % activity; for inhibition at 0.125 ppm: 0.1250 ppm; for inhibition at 0.25 ppm: 0.2500 ppm
Protocol: Example B5: Funicidal Action Against Pseudocercosporella herpotrichoides (Syn. Tapesia yallundae), Eye Spot of Cereals
as §1, with “Conidia” for “Mycelial fragments”, “24° C.” for “24 C”, “days. The expected fungicidal action is calculated according to the Colby method.” for “days.”

Botrytis cinerea = assay: Fungicidal action against Botrytis cinerea (gray mould), microtiter growth inhibition; settings: alone
Protocol: Example B2: Fungicidal Action Against Botrytis cinerea (Gray Mould)
as §1, with “Conidia” for “Mycelial fragments”, “24° C.” for “24 C”, “days. The expected fungicidal action is calculated according to the Colby method.” for “days.”

Alternaria solani = assay: Fungicidal action against Alternaria solani (early blight tomato/potato), microtiter growth inhibition; settings: alone
Protocol: Example B4: Fungicidal Action Against Alternaria solani (Early Blight Tomato/Potato)
as §1, with “Conidia” for “Mycelial fragments”, “24° C.” for “24 C”, “3” for “4”, “days. The expected fungicidal action is calculated according to the Colby method.” for “days.”

Septoria tritici = assay: Fungicidal action against Septoria tritici (leaf blotch), microtiter growth inhibition; settings: alone; for inhibition at 0.125 ppm: 0.1250 ppm
Protocol: Example B3: Fungicidal Action Against Septoria tritici (Leaf Blotch)
as §1, with “Conidia” for “Mycelial fragments”, “24° C.” for “24 C”, “days. The expected fungicidal action is calculated according to the Colby method.” for “days.”

[3] = Pyrenophora teres, compound alone, 0.1250 ppm
[4] = Pyrenophora teres, compound alone
[5] = Pyrenophora teres, compound alone, 0.0625 ppm
[6] = Alternaria solani, 0.2500 ppm, read-out: % activity
[7] = Zymoseptoria tritici, read-out: % activity

SMILES: O=C(NCCc1ncc(C(F)(F)F)cc1Cl)c1ccccc1C(F)(F)F [Compound B-5.12, N-{2-[3-chloro-5-(trifluoromethyl)pyridin-2-yl]ethyl}-2-(trifluoromethyl)benzamid]
- inhibition at 0.0039 ppm (Gaeumannomyces graminis; read-out: % activity): 0%
- inhibition at 0.0078 ppm (Gaeumannomyces graminis; read-out: % activity): 0%
- inhibition at 0.0156 ppm (Gaeumannomyces graminis; 0.0156 ppm): 0%
- inhibition at 0.0313 ppm (Gaeumannomyces graminis; 0.0313 ppm, read-out: % activity): 0%
- inhibition at 0.125 ppm (Gaeumannomyces graminis; 0.1250 ppm): 0%
- inhibition at 0.25 ppm (Gaeumannomyces graminis; 0.2500 ppm): 0%
- inhibition at 0.5 ppm (Gaeumannomyces graminis; 0.5000 ppm): 0%
- inhibition at 1 ppm (Gaeumannomyces graminis; 1.0000 ppm): 0%
- inhibition at 2 ppm (Gaeumannomyces graminis; 2.0000 ppm): 0%
- inhibition at 0.0313 ppm [1]: 0%
- inhibition at 0.0625 ppm [1]: 0%
- inhibition at 0.125 ppm [1]: 20%
- inhibition at 0.25 ppm ([1]; 0.2500 ppm): 20%

SMILES: Fc1ccc([C@]2(Cn3cncn3)O[C@H]2c2ccccc2Cl)cc1 (racemic) [Epoxiconazole, epoxiconazole]
- inhibition at 0.125 ppm (Pyrenophora teres; [3]): 20%
- inhibition at 0.5 ppm (Pyrenophora teres; [4]): 50%
- inhibition at 1 ppm (Pyrenophora teres; [4]): 70%
- inhibition at 0.0156 ppm [2]: 0%
- inhibition at 0.125 ppm [2]: 70%
- inhibition at 0.25 ppm [2]: 90%

SMILES: CC(Cc1ccc(C(C)(C)C)cc1)CN1CCCCC1 (centres unmarked) [Fenpropidin, fenpropidin]
- inhibition at 0.0625 ppm (Pyrenophora teres; [5]): 0%
- inhibition at 0.125 ppm (Pyrenophora teres; [3]): 0%
- inhibition at 0.25 ppm (Pyrenophora teres; [4]): 0%
- inhibition at 0.5 ppm (Pyrenophora teres; [4]): 0%
- inhibition at 2 ppm (Pyrenophora teres; [4]): 0%
- inhibition at 0.5 ppm (Botrytis cinerea; Botrytis cinerea, 0.5000 ppm): 0%
- inhibition at 1 ppm (Botrytis cinerea; Botrytis cinerea, 1.0000 ppm): 0%
- inhibition at 2 ppm (Botrytis cinerea; Botrytis cinerea, 2.0000 ppm): 0%
- inhibition at 0.0156 ppm [2]: 0%
- inhibition at 0.0313 ppm [2]: 0%
- inhibition at 0.0625 ppm ([2]; 0.0625 ppm): 0%
- inhibition at 0.125 ppm [2]: 0%
- inhibition at 0.25 ppm [2]: 0%
- inhibition at 0.125 ppm (Alternaria solani; Alternaria solani, 0.1250 ppm): 0%
- inhibition at 0.25 ppm (Alternaria solani; [6]): 0%
- inhibition at 0.5 ppm (Alternaria solani; Alternaria solani, 0.5000 ppm, read-out: % activity): 0%
- inhibition at 1 ppm (Alternaria solani; Alternaria solani, 1.0000 ppm): 0%

SMILES: Cc1cc(C2CC2)nc(Nc2ccccc2)n1 [Cyprodinil, cyprodinil]
- inhibition at 0.0313 ppm (Pyrenophora teres; Pyrenophora teres, compound alone, 0.0313 ppm): 20%
- inhibition at 0.0625 ppm (Pyrenophora teres; [5]): 20%
- inhibition at 0.125 ppm (Pyrenophora teres; [3]): 50%
- inhibition at 0.25 ppm (Pyrenophora teres; [4]): 50%
- inhibition at 0.125 ppm (Septoria tritici; [7]): 0%
- inhibition at 0.25 ppm (Septoria tritici; Zymoseptoria tritici, 0.2500 ppm, read-out: % activity): 0%
- inhibition at 0.5 ppm (Septoria tritici; Zymoseptoria tritici, 0.5000 ppm, read-out: % activity): 0%
- inhibition at 1 ppm (Septoria tritici; Zymoseptoria tritici, 1.0000 ppm): 0%
- inhibition at 2 ppm (Septoria tritici; Zymoseptoria tritici, 2.0000 ppm): 0%
- inhibition at 0.0156 ppm [2]: 20%
- inhibition at 0.0313 ppm [2]: 70%
- inhibition at 0.25 ppm (Alternaria solani; [6]): 50%

SMILES: N#Cc1c(Cl)c(Cl)c(Cl)c(C#N)c1Cl [Chlorothalonil, chlorothalonil]
- inhibition at 0.25 ppm (Pyrenophora teres; [4]): 0%
- inhibition at 0.5 ppm (Pyrenophora teres; [4]): 20%
- inhibition at 0.0625 ppm (Septoria tritici; Zymoseptoria tritici, 0.0625 ppm, read-out: % activity): 0%
- inhibition at 0.125 ppm (Septoria tritici; [7]): 0%
- inhibition at 0.0156 ppm [2]: 0%
- inhibition at 0.0313 ppm [2]: 50%
- inhibition at 0.125 ppm [2]: 90%

SMILES: CO/C=C(/C(=O)OC)c1ccccc1Oc1cc(Oc2ccccc2C#N)ncn1 [Azoxystrobin, azoxystrobin]
- % activity (Pyrenophora teres; 0.0313 ppm): 20%
- % activity (Pyrenophora teres; 0.0625 ppm): 50%
- % activity (Pyrenophora teres; 0.1250 ppm): 70%
- % activity (Botrytis cinerea; 0.1250 ppm): 0%
- % activity (Botrytis cinerea; 0.2500 ppm): 0%
- % activity (Botrytis cinerea; 0.5000 ppm): 0%
- % activity (Botrytis cinerea; 1.0000 ppm): 0%
- % activity (Botrytis cinerea; 2.0000 ppm): 0%
- % activity (Septoria tritici; 0.0625 ppm): 70%
- % activity (Alternaria solani; 0.0156 ppm): 20%
- % activity (Alternaria solani; 0.0313 ppm): 20%
- % activity (Alternaria solani; 0.0625 ppm): 20%
- % activity (Alternaria solani; 0.2500 ppm): 50%
- % activity (Alternaria solani; 0.5000 ppm): 50%

SMILES: CCCC1COC(Cn2cncn2)(c2ccc(Cl)cc2Cl)O1 (centres unmarked) [Propiconazole]
- inhibition at 1 ppm (Pyrenophora teres; [4]): 20%
- inhibition at 2 ppm (Pyrenophora teres; [4]): 50%
- inhibition at 0.0039 ppm (Gaeumannomyces graminis; read-out: % activity): 0%
- inhibition at 0.0078 ppm (Gaeumannomyces graminis; read-out: % activity): 0%
- inhibition at 0.0625 ppm (Gaeumannomyces graminis; 0.0625 ppm, read-out: % activity): 0%
- inhibition at 0.0313 ppm [1]: 20%
- inhibition at 0.0625 ppm [1]: 70%
- inhibition at 0.125 ppm [1]: 90%
